Reference: patent US11725036B2, “Modified lipidated relaxin B chain peptides and their therapeutic use” (Sanofi, priority 2018, dated 2023)
Starred links: 1 amine or outer side, 2 acyl side, 3 side chain; linkers in the order of their positions; H or OH if unused. Non-standard residues stand in square brackets, D forms with d. Residues, ends and D or L forms follow the SMILES beside them. Groups on a side chain read outwards from the residue. *: point of attachment. X1 = CCCCCCCCCCCCCCCC(=O)N[C@@H](CCC(=O)N[C@@H](CCC(=O)N[C@@H](CCC(=O)NCCCOCCOCCOCCCNC(=O)CCC(=O)NCCCOCCOCCOCCCNC(=O)CCC(=O)NCCCOCCOCCOCCCN*)C(=O)O)C(=O)O)C(=O)O; Suc = O=C(CCC(=O)[*:2])[*:1]; Aib = CC(C)(N)C(=O)O

Molecular target: T1, RXFP1 (Homo sapiens, UniProt Q9HBX9)
T1 construct: OVCAR5 cells expressing endogenous RXFP1; endogenous in cells; host or cells: OVCAR5
T1 sequence (Q9HBX9 1-757): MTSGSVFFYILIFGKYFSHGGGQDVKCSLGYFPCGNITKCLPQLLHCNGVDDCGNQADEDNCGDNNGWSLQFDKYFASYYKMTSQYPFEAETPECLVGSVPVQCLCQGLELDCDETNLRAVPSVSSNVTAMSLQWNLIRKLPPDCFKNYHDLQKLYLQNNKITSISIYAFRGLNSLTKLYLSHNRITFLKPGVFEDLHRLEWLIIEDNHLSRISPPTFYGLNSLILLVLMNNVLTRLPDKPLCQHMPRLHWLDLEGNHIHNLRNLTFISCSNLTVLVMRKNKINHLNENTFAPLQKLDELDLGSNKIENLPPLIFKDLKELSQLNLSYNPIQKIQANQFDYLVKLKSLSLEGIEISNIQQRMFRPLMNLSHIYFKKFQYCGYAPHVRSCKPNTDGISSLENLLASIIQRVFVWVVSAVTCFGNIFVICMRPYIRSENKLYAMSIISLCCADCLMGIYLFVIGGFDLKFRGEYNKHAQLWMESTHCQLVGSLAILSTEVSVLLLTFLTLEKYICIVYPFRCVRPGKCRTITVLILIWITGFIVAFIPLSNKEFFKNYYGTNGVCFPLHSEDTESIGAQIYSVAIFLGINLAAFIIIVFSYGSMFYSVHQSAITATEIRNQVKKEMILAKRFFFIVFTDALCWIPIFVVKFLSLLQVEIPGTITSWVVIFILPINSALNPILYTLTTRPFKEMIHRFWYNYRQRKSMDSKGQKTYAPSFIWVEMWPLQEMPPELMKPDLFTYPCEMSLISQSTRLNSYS
Test: OVCAR5 cAMP assay (HTRF)
Assay type: cell-based
Conditions: for EC50: OVCAR 5 cells expressing endogenous RXFP1, cAMP readout; for Emax: OVCAR 5 cells, maximal cAMP relative to H2-relaxin
Method in brief: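 Endogenous RXFP1 in OVCAR5 cells, pretreated 40 min at 37° C with 1 mM IBMX, then exposed to increasing peptide concentrations in serum-free medium for 30 min at 37° C. cAMP read by HTRF; EC50 by variable-slope sigmoidal fit, Emax as % of H2-relaxin maximal cAMP in same run.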

CCCCCCCCCCCCCCCC(=O)N[C@@H](CCC(=O)N[C@@H](CCC(=O)N[C@@H](CCC(=O)NCCCOCCOCCOCCCNC(=O)CCC(=O)NCCCOCCOCCOCCCNC(=O)CCC(=O)NCCCOCCOCCOCCCNC(=O)CCC(=O)NCCCC[C@H](NC(=O)CNC(=O)[C@H](CCC(=O)O)NC(=O)C(C)(C)NC(=O)C(C)(C)NC(=O)[C@@H](NC(=O)[C@H](CCCCNC(C)=O)NC(=O)[C@H](C)NC(=O)[C@H](CCCNC(=N)N)NC(=O)[C@@H](NC(=O)[C@H](CCCCN)NC(=O)[C@H](CCC(=O)O)NC(=O)[C@H](CCCNC(=N)N)NC(=O)CNC(=O)[C@H](CCC(=O)O)NC(=O)[C@H](CC(C)C)NC(C)=O)C(C)C)[C@@H](C)CC)C(=O)N[C@@H](CO)C(=O)N[C@@H](CCCNC(=N)N)C(=O)N[C@@H](Cc1c[nH]c2ccccc12)C(=O)N[C@@H](CO)C(=O)NC(C)(C)C(=O)N[C@@H](CCCNC(=N)N)C(=O)N[C@@H](CCCCN)C(=O)N[C@@H](CCCCNC(C)=O)C(N)=O)C(=O)O)C(=O)O)C(=O)O [compound 64] (Ac-LEGREKVRAK(Ac)I[Aib][Aib]EGK([Suc-X1])SRWS[Aib]RKK(Ac)-NH2) showed an EC50 of 0.52 nM and an Emax of 95%.
With CCCCCCCCCCCCCCCC(=O)N[C@@H](CCC(=O)N[C@@H](CCC(=O)N[C@@H](CCC(=O)NCCCOCCOCCOCCCNC(=O)CCC(=O)NCCCOCCOCCOCCCNC(=O)CCC(=O)NCCCOCCOCCOCCCNC(=O)CCC(=O)NCCCC[C@H](NC(=O)CNC(=O)[C@H](CCC(=O)O)NC(=O)C(C)(C)NC(=O)C(C)(C)NC(=O)[C@@H](NC(=O)[C@H](CCCCNC(C)=O)NC(=O)[C@H](C)NC(=O)[C@H](CCCNC(=N)N)NC(=O)[C@@H](NC(=O)[C@H](CCCCN)NC(=O)[C@H](CCC(=O)O)NC(=O)[C@H](CCCNC(=N)N)NC(=O)CNC(=O)[C@H](CCC(=O)O)NC(=O)[C@H](CC(C)C)NC(C)=O)C(C)C)[C@@H](C)CC)C(=O)N[C@@H](CO)C(=O)N[C@H](C(=O)N[C@@H](Cc1c[nH]c2ccccc12)C(=O)N[C@@H](CO)C(=O)NC(C)(C)C(=O)N[C@@H](CCCNC(=N)N)C(=O)N[C@@H](CCCCN)C(=O)N[C@@H](CCCCNC(C)=O)C(N)=O)[C@@H](C)O)C(=O)O)C(=O)O)C(=O)O [compound 1] (Ac-LEGREKVRAK(Ac)I[Aib][Aib]EGK([Suc-X1])STWS[Aib]RKK(Ac)-NH2) the EC50 was 1.5 nM and the Emax was 99%.
